Key:
[1] = target: PHD2 enzyme (residues 181-417) (Homo sapiens (Human), UniProt Q9GZT9); assay: Inhibition of PHD enzyme (LC/MS peptide hydroxylation assay); format: biochemical; details: PHD2 (residues 181-417) 5 nM, 60 min pre-incubation; -log(IC50), IC50 molar
Outline: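 Hydroxylated peptide quantified by LC/MS after 60 min turnover of 1 uM biotinylated peptide with 2 uM 2-oxoglutarate and 1 mM ascorbate, stopped by excess tight-binding inhibitor. Beforehand, 5 nM enzyme and compound were preincubated 60 min at RT, pH 7.3 HEPES/KCl/TCEP/FeCl2/BSA buffer. Values as pIC50 (−log molar IC50).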

[2] = test system: HIF1a protein in H9c2 rat cardiomyocytes; assay: Cell-based HIF-alpha stabilization assay (inhibition of PHD in cells); details: 24 hrs compound incubation, HIF1a protein by ELISA; for EC50: Rattus norvegicus, H9c2, 24 h, read-out: Inhibition of PHD in cells (pEC50) (converted)
Outline: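 HIF1a stabilization was measured by ELISA on lysates of H9c2 rat cardiomyocytes after 24 h exposure to 11 serial compound concentrations, expressed relative to the desferrioxamine maximum. Curve fits gave EC50. EC50pos denotes the concentration producing half the desferrioxamine maximal response.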

Chain of PHD2 enzyme (residues 181-417) (Q9GZT9 181-417): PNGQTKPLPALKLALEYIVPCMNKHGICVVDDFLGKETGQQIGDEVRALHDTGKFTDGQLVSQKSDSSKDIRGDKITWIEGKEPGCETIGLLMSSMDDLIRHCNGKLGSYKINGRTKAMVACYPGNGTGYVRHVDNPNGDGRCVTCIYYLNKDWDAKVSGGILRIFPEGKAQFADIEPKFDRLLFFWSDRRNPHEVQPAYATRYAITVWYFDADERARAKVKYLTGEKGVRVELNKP

Compound	PHD Inhibition (pIC50) [1]	EC50 [2] [nM]	Inhibition of PHD in cells (pEC50) [2]
N#Cc1ccc(-c2cnn(-c3ccc(C(=O)NCCCn4cccn4)cn3)c2O)cc1 [Example 117, N-(3-(1H-pyrazol-1-yl)propyl)-6-(4-(4-cyanophenyl)-5-hydroxy-1H-pyrazol-1-yl)nicotinamide]	7.44	646	–
N#Cc1ccc(-c2cnn(-c3ccc(C(=O)NCCCOCC4CC4)cn3)c2O)cc1 [Example 118, 6-(4-(4-cyanophenyl)-5-hydroxy-1H-pyrazol-1-yl)-N-(3-(cyclopropylmethoxy)propyl)nicotinamide]	7.36	316	–
CO[C@H]1CC[C@@H](NC(=O)c2ccc(-n3ncc(-c4ccc(C#N)cc4C)c3O)nc2)CC1 [Example 119, 6-(4-(4-cyano-2-methylphenyl)-5-hydroxy-1H-pyrazol-1-yl)-N-((1 s,4s)-4-methoxycyclohexyl)nicotinamide]	7.11	126	–
CC[C@H](C)NC(=O)c1ccc(-n2ncc(-c3ccc(C#N)cc3C)c2O)nc1 [Example 122, (S)—N-(sec-butyl)-6-(4-(4-cyano-2-methylphenyl)-5-hydroxy-1H-pyrazol-1-yl)nicotinamide]	7.06	95.5	–
N#Cc1ccc(-c2cnn(-c3ccc(C(=O)N4CCOCC4)cn3)c2O)cc1 [Example 123, 4-(5-hydroxy-1-(5-(morpholine-4-carbonyl)pyridin-2-yl)-1H-pyrazol-4-yl)benzonitrile]	7.16	4790	–
CCOCCNC(=O)c1ccc(-n2ncc(-c3ccc(C#N)cc3C)c2O)nc1 [Example 126, 6-(4-(4-cyano-2-methylphenyl)-5-hydroxy-1H-pyrazol-1-yl)-N-(2-ethoxyethyl)nicotinamide]	7.24	380	–
Cc1cc(C#N)ccc1-c1cnn(-c2ccc(C(=O)NC(C)C)cn2)c1O [Example 128, 6-(4-(4-cyano-2-methylphenyl)-5-hydroxy-1H-pyrazol-1-yl)-N-isopropylnicotinamide]	7.04	145	–
Cc1cc(C#N)ccc1-c1cnn(-c2ccc(C(=O)NCCCCO)cn2)c1O [Example 130, 6-(4-(4-cyano-2-methylphenyl)-5-hydroxy-1H-pyrazol-1-yl)-N-(4-hydroxybutyl)nicotinamide]	7.27	417	–
Cc1cc(C#N)ccc1-c1cnn(-c2ccc(C(=O)N[C@H]3CC[C@H](O)CC3)cn2)c1O [Example 132, 6-(4-(4-cyano-2-methylphenyl)-5-hydroxy-1H-pyrazol-1-yl)-N-((1r,4r)-4-hydroxycyclohexyl)nicotinamide]	7.26	–	6.59
Cc1cc(C#N)ccc1-c1cnn(-c2ccc(C(=O)NCC3CCCO3)cn2)c1O (centres unmarked) [Example 133, 6-(4-(4-cyano-2-methylphenyl)-5-hydroxy-1H-pyrazol-1-yl)-N-((tetrahydrofuran-2-yl)methyl)nicotinamide]	7.17	195	–
COCC1(CNC(=O)c2ccc(-n3ncc(-c4ccc(C#N)cc4C)c3O)nc2)CC1 [Example 135, 6-(4-(4-cyano-2-methylphenyl)-5-hydroxy-1H-pyrazol-1-yl)-N-((1-(methoxymethyl)cyclopropyl)methyl)nicotinamide]	7.15	148	–
Cc1cc(C#N)ccc1-c1cnn(-c2ccc(C(=O)N[C@H]3CC[C@H](O)CC3)cn2)c1O [Example 139, 6-(4-(4-cyano-2-methylphenyl)-5-hydroxy-1H-pyrazol-1-yl)-N-((1r,4r)-4-hydroxycyclohexyl)nicotinamide]	7.36	–	7.09
Cc1cc(C#N)ccc1-c1cnn(-c2ccc(C(=O)NC3CCN(C4CC4)CC3)cn2)c1O [Example 140, 6-(4-(4-cyano-2-methylphenyl)-5-hydroxy-1H-pyrazol-1-yl)-N-(1-cyclopropylpiperidin-4-yl)nicotinamide]	8.1	120	–
Cc1cc(C#N)ccc1-c1cnn(-c2ccc(C(=O)NCCCn3cccn3)cn2)c1O [Example 141]	8.3	407	–
Cc1cc(C#N)ccc1-c1cnn(-c2ccc(C(=O)NCC3CCCCO3)cn2)c1O (centres unmarked) [Example 142, 6-(4-(4-cyano-2-methylphenyl)-5-hydroxy-1H-pyrazol-1-yl)-N-((tetrahydro-2H-pyran-2-yl)methyl)nicotinamide]	8.3	85.1	–
COCC1(CNC(=O)c2ccc(-n3ncc(-c4ccc(C#N)cc4C)c3O)nc2)CCCC1 [Example 143, 6-(4-(4-cyano-2-methylphenyl)-5-hydroxy-1H-pyrazol-1-yl)-N-((1-(methoxymethyl)cyclopentyl)methyl)nicotinamide]	7.9	891	–
C[C@H]1CC[C@H](NC(=O)c2ccc(-n3ncc(-c4ccc(C#N)cc4)c3O)nc2)CC1 [Example 144, 6-(4-(4-cyanophenyl)-5-hydroxy-1H-pyrazol-1-yl)-N-((1r,4r)-4-methylcyclohexyl)nicotinamide]	8.1	1700	–
COC(C)CCNC(=O)c1ccc(-n2ncc(-c3ccc(C#N)cc3)c2O)nc1 (centres unmarked) [Example 145, 6-(4-(4-cyanophenyl)-5-hydroxy-1H-pyrazol-1-yl)-N-(3-methoxybutyl)nicotinamide]	8.3	501	–
COCC(C)CNC(=O)c1ccc(-n2ncc(-c3ccc(C#N)cc3)c2O)nc1 (centres unmarked) [Example 146, 6-(4-(4-cyanophenyl)-5-hydroxy-1H-pyrazol-1-yl)-N-(3-methoxy-2-methylpropyl)nicotinamide]	8.3	692	–
COCC1(CNC(=O)c2ccc(-n3ncc(-c4ccc(C#N)cc4)c3O)nc2)CCCC1 [Example 147, 6-(4-(4-cyanophenyl)-5-hydroxy-1H-pyrazol-1-yl)-N-((1-(methoxymethyl)cyclopentyl)methyl)nicotinamide]	7.9	3240	–

Further lines, with some results ahead:

PHD Inhibition (pIC50) [1]	Compound	EC50 [2] [nM]	Inhibition of PHD in cells (pEC50) [2]
7.2	Cc1cc(C#N)ccc1-c1cnn(-c2ccc(C(=O)N[C@H]3CCOC3)cn2)c1O [Example 120, (S)-6-(4-(4-cyano-2-methylphenyl)-5-hydroxy-1H-pyrazol-1-yl)-N-(tetrahydrofuran-3-yl)nicotinamide]	102	–
7.17	COCCCNC(=O)c1ccc(-n2ncc(-c3ccc(C#N)cc3C)c2O)nc1 [Example 121, 6-(4-(4-cyano-2-methylphenyl)-5-hydroxy-1H-pyrazol-1-yl)-N-(3-methoxypropyl)nicotinamide]	191	–
7.19	Cc1cc(C#N)ccc1-c1cnn(-c2ccc(C(=O)NCCCO)cn2)c1O [Example 125, 6-(4-(4-cyano-2-methylphenyl)-5-hydroxy-1H-pyrazol-1-yl)-N-(3-hydroxypropyl)nicotinamide]	372	–
7.18	Cc1cc(C#N)ccc1-c1cnn(-c2ccc(C(=O)NC3CC3)cn2)c1O [Example 127, 6-(4-(4-cyano-2-methylphenyl)-5-hydroxy-1H-pyrazol-1-yl)-N-cyclopropylnicotinamide]	93.3	–
7.14	COCC1(NC(=O)c2ccc(-n3ncc(-c4ccc(C#N)cc4C)c3O)nc2)CCCC1 [Example 129, 6-(4-(4-cyano-2-methylphenyl)-5-hydroxy-1H-pyrazol-1-yl)-N-(1-(methoxymethyl)cyclopentyl)nicotinamide]	186	–
7.21	Cc1cc(C#N)ccc1-c1cnn(-c2ccc(C(=O)N[C@H]3CC[C@@H](O)CC3)cn2)c1O [Example 131, 6-(4-(4-cyano-2-methylphenyl)-5-hydroxy-1H-pyrazol-1-yl)-N-((1 s,4s)-4-hydroxycyclohexyl)nicotinamide]	257	–
7.21	Cc1cc(C#N)ccc1-c1cnn(-c2ccc(C(=O)NC3CCC3)cn2)c1O [Example 134, 6-(4-(4-cyano-2-methylphenyl)-5-hydroxy-1H-pyrazol-1-yl)-N-cyclobutylnicotinamide]	339	–
7.13	COCC(C)NC(=O)c1ccc(-n2ncc(-c3ccc(C#N)cc3C)c2O)nc1 (centres unmarked) [Example 136, 6-(4-(4-cyano-2-methylphenyl)-5-hydroxy-1H-pyrazol-1-yl)-N-(1-methoxypropan-2-yl)nicotinamide]	112	–
7.21	Cc1cc(C#N)ccc1-c1cnn(-c2ccc(C(=O)N[C@@H]3CCOC3)cn2)c1O [Example 137, (R)-6-(4-(4-cyano-2-methylphenyl)-5-hydroxy-1H-pyrazol-1-yl)-N-(tetrahydrofuran-3-yl)nicotinamide]	245	–
6.95	Cc1cc(C#N)ccc1-c1cnn(-c2ccc(C(=O)N[C@H](C)C3CC3)cn2)c1O [Example 138A, (R)-6-(4-(4-cyano-2-methylphenyl)-5-hydroxy-1H-pyrazol-1-yl)-N-(1-cyclopropylethyl)nicotinamide]	302	–
7.57	COCCCNC(=O)c1ccc(-n2ncc(-c3ccc(C#N)cc3)c2O)nc1 [Example 148, 6-(4-(4-cyanophenyl)-5-hydroxy-1H-pyrazol-1-yl)-N-(3-methoxypropyl)nicotinamide]	631	–

From patent US10407409B2, “6-(5-hydroxy-1H-pyrazol-1-yl)nicotinamide inhibitors of PHD” (Takeda Pharmaceutical Company Limited, priority 2013, dated 2019)
